Measured values taken from patent US5106407A, “Iodones and methods for antimicrobial use” (priority 1989, dated 1992).

Tested on: mixture of bacterial organisms listed in Table 1
Assay: cutting oil preservation test;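 note: colony count scale from 1 for no colonies up to 10 for a solid mass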
Procedure: Fifty gram aliquots of the latex were placed in sterile bottles and one hundred gram aliquots of the diluted cutting oil were placed in 250-mL Erlenmeyer flasks. An appropriate amount of a fresh 1 percent stock solution of (2-nitrophenyl)-iodonium 2,2-dimethyl-4,6-dioxo-1,3-dioxan-5-ylide in acetone-water was added to achieve the desired final concentrations (see Tables 5 and 6). A small portion of the respective latex or cutting oil preparation was then streaked onto Tryptic Soy Agar (TSA) petri plates using sterile cotton swabs to determine whether the preparations were sterile. If the particular preparation was sterile, it was then inoculated with an appropriate volume (0.1 mL for the latex and 0.2 mL for the cutting oil) of a mixture of equal aliquots of 24 hr cultures of each of the bacterial organisms listed in Table 1 (not the fungi and yeast). The latex samples were incubated at 30° C. and the cutting oils were agitated on a rotary shaker at room temperature. After 24 hr, all samples were again streaked on TSA. All plates were then incubated at 30° C. for 48 hr and then rated 1 to 10 according to the growth rating system described in Table 4.
The results from this first set of streaks after inoculation are listed in the columns labeled streak number 1 in Tables 5 and 6. Samples with a rating of 3 or less from streak number 1 were reinoculated as described for the first inoculation above. Samples with a rating of 4 or greater were not reinoculated. After another 24 hr all samples were again restreaked on TSA agar. The results from these second streaks were labeled streak number 2 in Tables 5 and 6. Samples were reinoculated and restreaked in this fashion for a maximum of 10 streaks. Any samples with two streaks in a row with a ten rating were not restreaked again.

For `CC1(C)OC(=O)[C-]([I+]c2ccccc2[N+](=O)[O-])C(=O)O1` [Example 19, (2-Nitrophenyl)-iodonium 2,2-dimethyl-4,6-dioxo-1,3-dioxan-5-ylide], the growth rating (25 ppm, streak 1) was 1 (0), the growth rating (25 ppm, streak 2) was 9 and the growth rating (25 ppm, streak 3) was 10. The growth rating (25 ppm, streak 4, restreaking not continued) was 10, the growth rating (50 ppm, streak 1) was 1 (0) and the growth rating (50 ppm, streak 2) was 2 (1-4). The growth rating (50 ppm, streak 3) was 10, the growth rating (50 ppm, streak 4, restreaking not continued) was 10 and the growth rating (100 ppm, streak 1) was 1 (0). For the same molecule, the growth rating (100 ppm, streak 2) was 2 (1-4), the growth rating (100 ppm, streak 3) was 2 (1-4) and the growth rating (100 ppm, streak 4) was 1 (0). For the same molecule, the growth rating (100 ppm, streak 5) was 10, the growth rating (100 ppm, streak 6, restreaking not continued) was 10 and the growth rating (250 ppm, streak 1) was 1 (0). The growth rating (250 ppm, streak 2) was 1 (0), the growth rating (250 ppm, streak 3) was 1 (0) and the growth rating (250 ppm, streak 4) was 1 (0). The growth rating (250 ppm, streak 5) was 1 (0), the growth rating (250 ppm, streak 6) was 1 (0) and the growth rating (250 ppm, streak 7) was 1 (0). For the same molecule, the growth rating (250 ppm, streak 8) was 1 (0), the growth rating (250 ppm, streak 9) was 6 (51-100) and the growth rating (250 ppm, streak 10) was 10. The growth rating (500 ppm, streak 1) was 1 (0), the growth rating (500 ppm, streak 2) was 1 (0) and the growth rating (500 ppm, streak 3) was 1 (0). For the same molecule, the growth rating (500 ppm, streak 4) was 1 (0), the growth rating (500 ppm, streak 5) was 1 (0) and the growth rating (500 ppm, streak 6) was 1 (0). The growth rating (500 ppm, streak 7) was 1 (0), the growth rating (500 ppm, streak 8) was 1 (0) and the growth rating (500 ppm, streak 9) was 1 (0). For the same molecule, the growth rating (500 ppm, streak 10) was 1 (0), the growth rating (1000 ppm, streak 1) was 1 (0) and the growth rating (1000 ppm, streak 2) was 1 (0). For the same molecule, the growth rating (1000 ppm, streak 3) was 1 (0), the growth rating (1000 ppm, streak 4) was 1 (0) and the growth rating (1000 ppm, streak 5) was 1 (0). For the same molecule, the growth rating (1000 ppm, streak 6) was 1 (0), the growth rating (1000 ppm, streak 7) was 1 (0) and the growth rating (1000 ppm, streak 8) was 1 (0). The growth rating (1000 ppm, streak 9) was 1 (0) and the growth rating (1000 ppm, streak 10) was 1 (0).
